Laboratory results: patent US12662479B2 (Foghorn Therapeutics Inc., priority 2020, dated 2026)
Counter-ions that a name gives are not always drawn.

Experiments:
[1] = biological target: T1, HiBit-BRG1 fusion protein (Homo sapiens, UniProt P51532); test: HiBiT-BRG1 cell-based degradation assay (Nano-Glo HiBiT Lytic Detection, 24 h); conditions: HeLa cells expressing HiBit-BRG1 and LgBit; for DC50: read-out: BRG1 HiBit Degradation IC50; for Dmax: HeLa, top dose 30 μM, read-out: BRG1 HiBit Degradation Maximum measured
T1 construct: expressed in transfected cells
Method in brief: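 Stable HeLa line expressing HiBiT-BRG1 and LgBiT, seeded at 5000 cells/well; luminescence read after lytic Nano-Glo HiBiT reagent and 10 min shaking at RT. % degradation normalised between DMSO (high control) and 2 μM reference BRM/BRG1 degrader (low control).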

HiBit-BRM fusion protein = biological target: T2, HiBit-BRM fusion protein (Homo sapiens, UniProt P51531); test: HiBiT-BRM cell-based degradation assay (Nano-Glo HiBiT Lytic Detection, 24 h); conditions: HeLa cells expressing HiBiT-BRM; for DC50: read-out: BRM HiBit Degradation IC50; for BRM HiBit Degradation Maximum measured: top dose 30 μM
T2 construct: expressed in transfected cells
Method in brief: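 HeLa cells stably expressing HiBiT-BRM were treated for 24 h with compounds (10-point 3-fold dilutions, 30 μM final top dose, in duplicate). HiBiT was detected by lytic LgBiT complementation luminescence. % degradation was normalized to DMSO (high control) and 2 μM of a reference BRM/BRG1 degrader (low control).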

T1 sequence (P51532 whole entry, the tested form may be a part): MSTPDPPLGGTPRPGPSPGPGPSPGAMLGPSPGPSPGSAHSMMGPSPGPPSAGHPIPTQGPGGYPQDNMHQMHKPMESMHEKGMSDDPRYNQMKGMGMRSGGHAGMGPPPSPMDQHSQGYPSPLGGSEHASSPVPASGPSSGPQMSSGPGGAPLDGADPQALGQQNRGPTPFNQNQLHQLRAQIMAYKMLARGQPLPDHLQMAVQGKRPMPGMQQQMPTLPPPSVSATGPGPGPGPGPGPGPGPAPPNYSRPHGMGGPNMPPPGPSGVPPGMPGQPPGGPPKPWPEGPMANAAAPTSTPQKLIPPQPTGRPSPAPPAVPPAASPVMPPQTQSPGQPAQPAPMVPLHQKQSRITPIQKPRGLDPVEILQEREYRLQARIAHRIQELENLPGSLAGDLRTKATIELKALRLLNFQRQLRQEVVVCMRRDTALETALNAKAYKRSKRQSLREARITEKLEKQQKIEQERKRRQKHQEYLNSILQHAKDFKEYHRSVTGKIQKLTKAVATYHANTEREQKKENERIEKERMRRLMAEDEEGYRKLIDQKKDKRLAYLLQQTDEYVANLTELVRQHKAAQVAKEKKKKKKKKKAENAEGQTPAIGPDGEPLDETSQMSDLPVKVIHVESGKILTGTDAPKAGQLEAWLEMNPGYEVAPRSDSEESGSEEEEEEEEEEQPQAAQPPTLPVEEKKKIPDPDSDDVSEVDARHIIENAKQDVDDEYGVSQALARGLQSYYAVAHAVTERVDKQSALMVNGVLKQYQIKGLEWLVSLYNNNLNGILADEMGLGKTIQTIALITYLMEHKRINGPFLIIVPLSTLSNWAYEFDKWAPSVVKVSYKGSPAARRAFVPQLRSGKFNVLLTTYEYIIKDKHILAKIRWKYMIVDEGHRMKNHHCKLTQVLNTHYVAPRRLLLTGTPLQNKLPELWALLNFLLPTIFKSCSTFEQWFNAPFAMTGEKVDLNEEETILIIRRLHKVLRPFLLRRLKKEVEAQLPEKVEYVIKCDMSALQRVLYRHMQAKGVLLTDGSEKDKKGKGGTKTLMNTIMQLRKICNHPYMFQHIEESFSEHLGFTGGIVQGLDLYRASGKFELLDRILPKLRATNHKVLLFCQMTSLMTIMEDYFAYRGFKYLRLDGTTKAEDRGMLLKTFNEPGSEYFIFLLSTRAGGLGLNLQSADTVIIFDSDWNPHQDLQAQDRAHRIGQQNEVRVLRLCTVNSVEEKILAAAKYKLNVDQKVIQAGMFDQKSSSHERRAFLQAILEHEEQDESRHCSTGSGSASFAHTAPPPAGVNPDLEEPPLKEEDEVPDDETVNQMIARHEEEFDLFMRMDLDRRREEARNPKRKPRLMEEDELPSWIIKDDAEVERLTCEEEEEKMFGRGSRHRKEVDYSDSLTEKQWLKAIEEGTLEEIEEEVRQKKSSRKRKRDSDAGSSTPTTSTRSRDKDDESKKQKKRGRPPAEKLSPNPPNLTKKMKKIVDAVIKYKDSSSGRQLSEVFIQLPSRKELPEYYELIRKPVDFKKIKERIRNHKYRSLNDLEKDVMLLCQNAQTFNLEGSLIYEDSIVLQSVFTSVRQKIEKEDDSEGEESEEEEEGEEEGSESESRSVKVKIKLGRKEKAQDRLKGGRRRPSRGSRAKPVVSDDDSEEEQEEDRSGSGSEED
T2 sequence (P51531 whole entry, the tested form may be a part): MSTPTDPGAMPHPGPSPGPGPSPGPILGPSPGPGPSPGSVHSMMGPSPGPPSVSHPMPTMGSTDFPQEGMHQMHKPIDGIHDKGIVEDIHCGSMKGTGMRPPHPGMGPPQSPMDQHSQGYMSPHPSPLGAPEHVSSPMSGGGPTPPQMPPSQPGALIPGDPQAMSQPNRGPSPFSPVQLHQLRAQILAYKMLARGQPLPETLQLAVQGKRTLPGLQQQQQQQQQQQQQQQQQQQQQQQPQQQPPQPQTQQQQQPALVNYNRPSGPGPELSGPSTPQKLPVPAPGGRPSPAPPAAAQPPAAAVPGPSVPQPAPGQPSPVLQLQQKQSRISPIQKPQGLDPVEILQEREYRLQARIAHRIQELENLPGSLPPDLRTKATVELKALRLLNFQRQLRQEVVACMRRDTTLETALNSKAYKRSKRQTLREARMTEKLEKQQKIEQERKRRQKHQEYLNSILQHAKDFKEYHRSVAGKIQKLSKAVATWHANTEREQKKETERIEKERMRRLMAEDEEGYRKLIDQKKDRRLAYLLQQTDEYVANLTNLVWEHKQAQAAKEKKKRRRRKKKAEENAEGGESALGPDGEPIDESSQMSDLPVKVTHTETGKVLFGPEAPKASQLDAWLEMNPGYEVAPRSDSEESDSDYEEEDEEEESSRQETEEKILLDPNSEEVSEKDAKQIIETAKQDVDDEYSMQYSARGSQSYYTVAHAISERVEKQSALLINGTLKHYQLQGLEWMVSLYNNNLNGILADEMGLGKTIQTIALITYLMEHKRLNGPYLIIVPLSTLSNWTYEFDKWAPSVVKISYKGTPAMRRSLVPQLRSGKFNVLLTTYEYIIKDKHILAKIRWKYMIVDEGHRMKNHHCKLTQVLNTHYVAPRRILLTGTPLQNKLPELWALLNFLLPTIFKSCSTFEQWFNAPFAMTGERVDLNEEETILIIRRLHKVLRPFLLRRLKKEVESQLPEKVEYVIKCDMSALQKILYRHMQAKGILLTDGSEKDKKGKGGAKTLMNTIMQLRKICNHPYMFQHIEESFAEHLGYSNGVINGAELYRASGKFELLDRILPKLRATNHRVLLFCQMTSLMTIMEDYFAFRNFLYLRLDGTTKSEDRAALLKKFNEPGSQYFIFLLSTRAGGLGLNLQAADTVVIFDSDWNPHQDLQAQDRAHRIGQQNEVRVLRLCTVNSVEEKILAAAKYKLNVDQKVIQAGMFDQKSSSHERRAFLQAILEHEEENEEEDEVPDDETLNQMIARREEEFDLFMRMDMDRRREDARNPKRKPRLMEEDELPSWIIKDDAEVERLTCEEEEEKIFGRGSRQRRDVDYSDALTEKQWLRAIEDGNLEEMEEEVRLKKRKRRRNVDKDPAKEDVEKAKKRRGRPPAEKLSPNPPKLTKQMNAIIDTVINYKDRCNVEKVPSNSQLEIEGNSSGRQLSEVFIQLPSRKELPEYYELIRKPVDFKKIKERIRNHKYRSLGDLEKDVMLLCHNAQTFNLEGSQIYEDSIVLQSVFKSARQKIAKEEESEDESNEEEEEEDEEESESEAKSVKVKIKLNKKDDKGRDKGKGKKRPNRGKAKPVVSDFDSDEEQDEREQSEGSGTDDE

DC50 [1]	Dmax [1]	DC50 (HiBit-BRM fusion protein)	BRM HiBit Degradation Maximum measured (HiBit-BRM fusion protein)	SMILES
> 10 µM	< 50%	> 10 µM	C (‘C’ = Maximum degradation <50%)	CS(=O)(=O)n1ccc(C(=O)NCC(=O)Nc2nc(-c3cccc(-c4ccnc(C5(C(=O)NCCNc6cccc7c6CN(C6CCC(=O)NC6=O)C7=O)CC5)c4)c3)cs2)c1 (stereo not drawn) [Compound 169, N-(2-((4-(3-(2-(1-((2-((2-(2,6-dioxopiperidin-3-yl)-1-oxoisoindolin-4-yl)amino)ethyl)carbamoyl)cyclopropyl)pyridin-4-yl)phenyl)thiazol-2-yl)amino)-2-oxoethyl)-1-(methylsulfonyl)-1H-pyrrole-3-carboxamide]
0.1 to 1 µM	> 75%	0.1 to 1 µM	A (‘A’ = Maximum degradation >75%)	CC(C)(C)n1ccc(C(=O)N[C@@H](COCc2ccc(C(=O)NC3CCN(CCOc4ccc5c(c4)C(=O)N(C4CCC(=O)NC4=O)C5=O)CC3)cc2)C(=O)Nc2nc(-c3ccccc3)cs2)c1 (stereo partly drawn) [Compound 170, 4-[[(2S)-2-[(1-tert-butylpyrrol-3-yl)formamido]-2-[(4-phenyl-1,3-thiazol-2-yl)carbamoyl]ethoxy]methyl]-N-[1-(2-[[2-(2,6-dioxopiperidin-3-yl)-1,3-dioxoisoindol-5-yl]oxy]ethyl)piperidin-4-yl]benzamide]
< 0.1 µM		< 0.1 µM		CC(C)(C)n1ccc(C(=O)N[C@@H](COCc2ccc(C(=O)NCCOC3CN(c4ccc5c(c4)C(=O)N(C4CCC(=O)NC4=O)C5=O)C3)cc2)C(=O)Nc2nc(-c3ccccc3)cs2)c1 (stereo partly drawn) [Compound 171]
> 10 µM	< 50%	> 10 µM	C (‘C’ = Maximum degradation <50%)	CS(=O)(=O)n1ccc(C(=O)N[C@@H](COCCCC(=O)NCCCCS(=O)(=O)CCCNc2cccc3c2C(=O)N(C2CCC(=O)NC2=O)C3=O)C(=O)Nc2nc(-c3ccccc3)cs2)c1 (stereo partly drawn) [Compound 172]

The remaining lines, values behind:

SMILES	DC50 [1]	Dmax [1]	DC50 (HiBit-BRM fusion protein)	BRM HiBit Degradation Maximum measured (HiBit-BRM fusion protein)
Cc1ncsc1-c1ccc(CNC(=O)[C@@H]2C[C@@H](O)CN2C(=O)[C@@H](NC(=O)C2CC2C(=O)NCc2cccc(-c3cccc(-c4csc(NC(=O)CNC(=O)c5ccn(S(C)(=O)=O)c5)n4)c3)c2)C(C)(C)C)cc1 (stereo partly drawn) [Compound 159, N1-[(2S)-1-[(2S,4R)-4-hydroxy-2-([[4-(4-methyl-1,3-thiazol-5-yl)phenyl]methyl]carbamoyl)pyrrolidin-1-yl]-3,3-dimethyl-1-oxobutan-2-yl]-N2-[[3-(2-[2-[(1-methanesulfonylpyrrol-3-yl)formamido]acetamido]-1,3-thiazol-4-yl)-[1,1-biphenyl]-3-yl]methyl]cyclopropane-1,2-dicarboxamide]	> 10 µM	< 50%	> 10 µM	C (‘C’ = Maximum degradation <50%)
Cc1ncsc1-c1ccc(CNC(=O)[C@@H]2C[C@@H](O)CN2C(=O)[C@@H](NC(=O)N2CC(C(=O)NCc3cccc(-c4cccc(-c5csc(NC(=O)CNC(=O)c6ccn(S(C)(=O)=O)c6)n5)c4)c3)C2)C(C)(C)C)cc1 [Compound 160, N1-[(2S)-1-[(2S,4R)-4-hydroxy-2-([[4-(4-methyl-1,3-thiazol-5-yl)phenyl]methyl]carbamoyl)pyrrolidin-1-yl]-3,3-dimethyl-1-oxobutan-2-yl]-N3-[[3-(2-[2-[(1-methanesulfonylpyrrol-3-yl)formamido]acetamido]-1,3-thiazol-4-yl)-[1,1-biphenyl]-3-yl]methyl]azetidine-1,3-dicarboxamide]	> 10 µM	< 50%	> 10 µM	C (‘C’ = Maximum degradation <50%)
CS(=O)(=O)n1ccc(C(=O)NCC(=O)Nc2nc(-c3cccc(-c4ccnc(C5(C(=O)NCCOc6ccc7c(c6)C(=O)N(C6CCC(=O)NC6=O)C7=O)CC5)c4)c3)cs2)c1 (stereo not drawn) [Compound 161]	0.1 to 1 µM	> 75%	0.1 to 1 µM	B (‘B’ = Maximum degradation ≥50% and ≤75%)
CN(CCNc1ccc2c(c1)C(=O)N(C1CCC(=O)NC1=O)C2=O)C(=O)C1(c2cc(-c3cccc(-c4csc(NC(=O)CNC(=O)c5ccn(S(C)(=O)=O)c5)n4)c3)ccn2)CC1 (stereo not drawn) [Compound 162, N-(2-[[2-(2,6-dioxopiperidin-3-yl)-1,3-dioxoisoindol-5-yl]amino]ethyl)-1-[4-[3-(2-[2-[(1-methanesulfonylpyrrol-3-yl)formamido]acetamido]-1,3-thiazol-4-yl)phenyl]pyridin-2-yl]-N-methylcyclopropane-1-carboxamide]	> 10 µM	< 50%	> 10 µM	C (‘C’ = Maximum degradation <50%)
Cc1ncsc1-c1ccc(CNC(=O)[C@@H]2C[C@@H](O)CN2C(=O)[C@@H](NC(=O)CN2CC3(CC(C(=O)NCc4cccc(-c5cccc(-c6csc(NC(=O)CNC(=O)c7ccn(S(C)(=O)=O)c7)n6)c5)c4)C3)C2)C(C)(C)C)cc1 [Compound 163, 2-([[(2S)-1-[(2S,4R)-4-hydroxy-2-([[4-(4-methyl-1,3-thiazol-5-yl)phenyl]methyl]carbamoyl)pyrrolidin-1-yl]-3,3-dimethyl-1-oxobutan-2-yl]carbamoyl]methyl)-N-[[3-(2-[2-[(1-methanesulfonylpyrrol-3-yl)formamido]acetamido]-1,3-thiazol-4-yl)-[1,1-biphenyl]-3-yl]methyl]-2-azaspiro[3.3]heptane-6-carboxamide]	> 10 µM	< 50%	0.1 to 1 µM	B (‘B’ = Maximum degradation ≥50% and ≤75%)
Cc1ncsc1-c1ccc(CNC(=O)[C@@H]2C[C@@H](O)CN2C(=O)[C@@H](NCc2cccc(-c3cccc(-c4csc(NC(=O)CNC(=O)c5ccn(S(C)(=O)=O)c5)n4)c3)c2)C(C)(C)C)cc1 [Compound 164, (2S,4R)-4-hydroxy-1-[(2S)-2-([[3′-(2-[2-[(1-methanesulfonylpyrrol-3-yl)formamido]acetamido]-1,3-thiazol-4-yl)-[1,1′-biphenyl]-3-yl]methyl]amino)-3,3-dimethylbutanoyl]-N-[[4-(4-methyl-1,3-thiazol-5-yl)phenyl]methyl]pyrrolidine-2-carboxamide]	> 10 µM	< 50%	> 10 µM	C (‘C’ = Maximum degradation <50%)
CS(=O)(=O)n1ccc(C(=O)NCC(=O)Nc2nc(-c3cccc(-c4ccnc(N5CCN(c6ccc7c(c6)C(=O)N(C6CCC(=O)NC6=O)C7=O)CC5)c4)c3)cs2)c1 (stereo not drawn) [Compound 165, N-[4-[3-(2-[4-[2-(2,6-dioxopiperidin-3-yl)-1,3-dioxoisoindol-5-yl]piperazin-1-yl]pyridin-4-yl)phenyl]-1,3-thiazol-2-yl]-2-[(1-methanesulfonylpyrrol-3-yl)formamido]acetamide trifluoroacetate]	> 10 µM	< 50%	> 10 µM	C (‘C’ = Maximum degradation <50%)
Cc1ncsc1-c1ccc(CNC(=O)[C@@H]2C[C@@H](O)CN2C(=O)[C@@H](NC(=O)CN2CC3(CN(CC(=O)NCc4cccc(-c5cccc(-c6csc(NC(=O)CNC(=O)c7ccn(S(C)(=O)=O)c7)n6)c5)c4)C3)C2)C(C)(C)C)cc1.O=C(O)C(F)(F)F [Compound 166, (2S,4R)-4-hydroxy-1-[(2S)-2-(2-[6-[([[3′-(2-[2-[(1-methanesulfonylpyrrol-3-yl)formamido]acetamido]-1,3-thiazol-4-yl)-[1,1′-biphenyl]-3-yl]methyl]carbamoyl)methyl]-2,6-diazaspiro[3.3]heptan-2-yl]acetamido)-3,3-dimethylbutanoyl]-N-[[4-(4-methyl-1,3-thiazol-5-yl)phenyl]methyl]pyrrolidine-2-carboxamide trifluoroacetate]	> 10 µM	< 50%	0.1 to 1 µM	B (‘B’ = Maximum degradation ≥50% and ≤75%)
CS(=O)(=O)n1ccc(C(=O)NCC(=O)Nc2nc(-c3cccc(-c4ccnc(C5(C(=O)NCCNc6ccc7c(c6)CN(C6CCC(=O)NC6=O)C7=O)CC5)c4)c3)cs2)c1 (stereo not drawn) [Compound 167, N-(2-[[2-(2,6-dioxopiperidin-3-yl)-1-oxo-3H-isoindol-5-yl]amino]ethyl)-1-[4-[3-(2-[2-[(1-methanesulfonylpyrrol-3-yl)formamido]acetamido]-1,3-thiazol-4-yl)phenyl]pyridin-2-yl]cyclopropane-1-carboxamide]	< 0.1 µM	> 75%	< 0.1 µM	A (‘A’ = Maximum degradation >75%)
CS(=O)(=O)n1ccc(C(=O)NCC(=O)Nc2nc(-c3cccc(-c4ccnc(C5(C(=O)NCCNc6ccc7c(c6)C(=O)N(C6CCC(=O)NC6=O)C7)CC5)c4)c3)cs2)c1 (stereo not drawn) [Compound 168, N-(2-((4-(3-(2-(1-((2-((2-(2,6-dioxopiperidin-3-yl)-3-oxoisoindolin-5-yl)amino)ethyl)carbamoyl)cyclopropyl)pyridin-4-yl)phenyl)thiazol-2-yl)amino)-2-oxoethyl)-1-(methylsulfonyl)-1H-pyrrole-3-carboxamide]	< 0.1 µM	> 75%	< 0.1 µM	A (‘A’ = Maximum degradation >75%)
